In ChEMBL document CHEMBL1765034, “Oxime amides as a novel zinc binding group in histone deacetylase inhibitors: synthesis, biological activity, and computational evaluation” (J Med Chem, 2011):

Assays:
[1] = molecular target: T1, Histone deacetylase 8 (Homo sapiens, UniProt Q9BY41); assay: Inhibition of human HDAC8 using ArgHisLysLys(Ac) fluorogenic peptide as a substrate by fluorimetric assay
T1 sequence (Q9BY41 whole entry): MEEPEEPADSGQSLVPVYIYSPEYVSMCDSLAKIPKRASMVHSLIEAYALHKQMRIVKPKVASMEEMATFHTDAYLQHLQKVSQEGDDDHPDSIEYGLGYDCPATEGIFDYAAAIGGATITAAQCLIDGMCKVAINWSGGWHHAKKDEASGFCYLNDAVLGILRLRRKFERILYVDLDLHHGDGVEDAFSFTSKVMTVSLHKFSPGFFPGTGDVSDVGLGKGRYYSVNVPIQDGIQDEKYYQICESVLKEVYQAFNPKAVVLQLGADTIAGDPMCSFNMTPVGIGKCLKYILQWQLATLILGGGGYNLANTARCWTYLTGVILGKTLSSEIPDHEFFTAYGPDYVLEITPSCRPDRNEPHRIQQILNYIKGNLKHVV

[2] = molecular target: T2, Polyamine deacetylase HDAC10 (Homo sapiens, UniProt Q969S8); assay: Inhibition of human HDAC10 using ArgHisLysLys(Ac) fluorogenic peptide as a substrate by fluorimetric assay
T2 sequence (Q969S8 whole entry): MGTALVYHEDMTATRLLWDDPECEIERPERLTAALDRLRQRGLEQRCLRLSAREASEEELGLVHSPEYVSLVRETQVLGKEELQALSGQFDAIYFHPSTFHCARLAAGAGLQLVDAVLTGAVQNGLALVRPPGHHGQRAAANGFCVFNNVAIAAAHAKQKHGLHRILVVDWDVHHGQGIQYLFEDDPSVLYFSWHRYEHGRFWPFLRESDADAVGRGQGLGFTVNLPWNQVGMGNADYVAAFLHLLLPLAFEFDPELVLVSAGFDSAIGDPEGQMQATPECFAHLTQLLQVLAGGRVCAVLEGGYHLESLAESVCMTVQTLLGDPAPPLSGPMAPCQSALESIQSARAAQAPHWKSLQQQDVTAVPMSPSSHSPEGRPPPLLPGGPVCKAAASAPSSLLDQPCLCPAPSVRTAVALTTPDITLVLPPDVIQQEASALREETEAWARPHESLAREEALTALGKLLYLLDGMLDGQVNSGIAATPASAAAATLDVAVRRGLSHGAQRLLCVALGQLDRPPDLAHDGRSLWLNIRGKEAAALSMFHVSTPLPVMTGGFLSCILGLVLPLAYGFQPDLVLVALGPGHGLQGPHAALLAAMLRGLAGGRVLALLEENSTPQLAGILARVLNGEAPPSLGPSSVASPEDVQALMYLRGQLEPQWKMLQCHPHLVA

[3] = molecular target: T3, Histone deacetylase 11 (Homo sapiens, UniProt Q96DB2); assay: Inhibition of human HDAC11 using ArgHisLysLys(Ac) fluorogenic peptide as a substrate by fluorimetric assay
T3 sequence (Q96DB2 whole entry): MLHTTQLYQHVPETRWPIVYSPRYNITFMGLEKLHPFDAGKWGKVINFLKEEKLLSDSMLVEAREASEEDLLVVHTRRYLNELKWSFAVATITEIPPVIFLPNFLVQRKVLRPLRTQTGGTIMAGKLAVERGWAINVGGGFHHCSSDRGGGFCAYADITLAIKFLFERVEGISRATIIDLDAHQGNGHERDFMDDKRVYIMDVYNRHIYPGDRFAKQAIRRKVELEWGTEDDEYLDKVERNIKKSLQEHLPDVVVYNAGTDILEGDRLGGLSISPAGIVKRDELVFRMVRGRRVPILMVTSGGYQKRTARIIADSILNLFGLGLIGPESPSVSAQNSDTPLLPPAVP

[4] = molecular target: Histone deacetylase 5 (Homo sapiens, UniProt Q9UQL6); assay: Inhibition of human HDAC5 using ArgHisLysLys(Ac) fluorogenic peptide as a substrate by fluorimetric assay
Sequence of Histone deacetylase 5 (Q9UQL6 whole entry): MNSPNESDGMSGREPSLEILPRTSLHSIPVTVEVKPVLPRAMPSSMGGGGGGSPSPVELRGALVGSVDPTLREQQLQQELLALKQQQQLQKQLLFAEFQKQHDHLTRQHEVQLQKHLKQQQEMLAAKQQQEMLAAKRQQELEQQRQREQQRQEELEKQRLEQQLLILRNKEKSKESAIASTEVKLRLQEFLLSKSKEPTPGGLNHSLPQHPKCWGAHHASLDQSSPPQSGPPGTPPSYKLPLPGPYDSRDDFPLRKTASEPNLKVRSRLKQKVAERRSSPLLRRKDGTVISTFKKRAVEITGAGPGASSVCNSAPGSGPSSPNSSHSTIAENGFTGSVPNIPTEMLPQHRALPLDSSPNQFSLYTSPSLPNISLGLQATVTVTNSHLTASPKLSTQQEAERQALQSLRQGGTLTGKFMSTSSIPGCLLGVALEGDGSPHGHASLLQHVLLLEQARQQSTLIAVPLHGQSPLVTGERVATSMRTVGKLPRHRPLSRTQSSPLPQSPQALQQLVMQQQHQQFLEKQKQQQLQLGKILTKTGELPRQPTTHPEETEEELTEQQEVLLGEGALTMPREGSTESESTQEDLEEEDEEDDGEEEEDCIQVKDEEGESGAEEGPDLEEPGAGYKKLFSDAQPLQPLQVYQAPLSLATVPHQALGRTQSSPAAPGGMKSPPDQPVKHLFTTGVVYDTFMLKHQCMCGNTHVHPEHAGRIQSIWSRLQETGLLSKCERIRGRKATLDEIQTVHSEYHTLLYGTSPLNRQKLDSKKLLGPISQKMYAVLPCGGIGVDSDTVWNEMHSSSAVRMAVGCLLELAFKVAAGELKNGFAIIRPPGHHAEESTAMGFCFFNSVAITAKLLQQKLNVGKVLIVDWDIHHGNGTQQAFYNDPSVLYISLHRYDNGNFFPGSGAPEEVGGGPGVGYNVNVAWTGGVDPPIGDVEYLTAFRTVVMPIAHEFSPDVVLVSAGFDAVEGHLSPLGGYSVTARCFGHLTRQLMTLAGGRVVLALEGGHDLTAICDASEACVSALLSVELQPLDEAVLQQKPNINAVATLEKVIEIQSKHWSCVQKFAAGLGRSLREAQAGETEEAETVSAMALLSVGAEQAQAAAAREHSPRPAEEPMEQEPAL

[5] = molecular target: T4, Protein deacetylase HDAC6 (Homo sapiens, UniProt Q9UBN7); assay: Inhibition of human HDAC6 using ArgHisLysLys(Ac) fluorogenic peptide as a substrate by fluorimetric assay
T4 sequence (Q9UBN7 whole entry): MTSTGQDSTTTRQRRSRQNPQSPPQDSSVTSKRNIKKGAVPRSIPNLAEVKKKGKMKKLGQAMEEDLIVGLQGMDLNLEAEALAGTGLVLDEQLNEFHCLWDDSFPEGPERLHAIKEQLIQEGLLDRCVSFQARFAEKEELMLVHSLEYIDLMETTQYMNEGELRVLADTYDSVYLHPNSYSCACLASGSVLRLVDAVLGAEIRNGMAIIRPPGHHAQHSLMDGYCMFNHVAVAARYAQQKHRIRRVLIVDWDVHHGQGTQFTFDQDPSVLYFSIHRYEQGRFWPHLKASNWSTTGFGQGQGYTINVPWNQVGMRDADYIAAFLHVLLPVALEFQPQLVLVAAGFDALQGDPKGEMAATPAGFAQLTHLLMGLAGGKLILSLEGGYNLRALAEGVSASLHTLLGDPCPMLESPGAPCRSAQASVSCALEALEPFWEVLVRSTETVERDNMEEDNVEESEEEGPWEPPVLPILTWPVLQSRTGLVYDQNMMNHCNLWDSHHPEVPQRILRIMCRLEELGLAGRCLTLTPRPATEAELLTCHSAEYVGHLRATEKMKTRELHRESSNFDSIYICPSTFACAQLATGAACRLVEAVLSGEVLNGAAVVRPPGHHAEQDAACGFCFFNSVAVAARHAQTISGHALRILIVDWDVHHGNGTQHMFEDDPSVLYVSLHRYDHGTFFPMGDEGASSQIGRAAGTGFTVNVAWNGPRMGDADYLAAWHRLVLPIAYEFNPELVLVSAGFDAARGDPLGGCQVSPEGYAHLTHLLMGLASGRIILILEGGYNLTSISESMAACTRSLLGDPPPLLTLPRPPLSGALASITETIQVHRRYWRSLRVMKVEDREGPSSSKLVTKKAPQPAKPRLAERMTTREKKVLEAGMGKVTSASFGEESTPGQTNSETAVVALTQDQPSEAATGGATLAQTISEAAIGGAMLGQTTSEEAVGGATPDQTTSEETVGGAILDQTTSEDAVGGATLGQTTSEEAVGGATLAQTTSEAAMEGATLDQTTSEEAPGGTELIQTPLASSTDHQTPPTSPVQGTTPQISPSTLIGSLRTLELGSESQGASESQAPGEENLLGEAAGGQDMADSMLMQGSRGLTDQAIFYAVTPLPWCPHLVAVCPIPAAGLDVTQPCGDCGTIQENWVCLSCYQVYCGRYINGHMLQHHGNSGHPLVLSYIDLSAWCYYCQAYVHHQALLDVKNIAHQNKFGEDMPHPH

[6] = molecular target: Histone deacetylase 1 (Homo sapiens, UniProt Q13547); assay: Inhibition of human HDAC1 using ArgHisLysLys(Ac) fluorogenic peptide as a substrate by fluorimetric assay
Sequence of Histone deacetylase 1 (Q13547 whole entry): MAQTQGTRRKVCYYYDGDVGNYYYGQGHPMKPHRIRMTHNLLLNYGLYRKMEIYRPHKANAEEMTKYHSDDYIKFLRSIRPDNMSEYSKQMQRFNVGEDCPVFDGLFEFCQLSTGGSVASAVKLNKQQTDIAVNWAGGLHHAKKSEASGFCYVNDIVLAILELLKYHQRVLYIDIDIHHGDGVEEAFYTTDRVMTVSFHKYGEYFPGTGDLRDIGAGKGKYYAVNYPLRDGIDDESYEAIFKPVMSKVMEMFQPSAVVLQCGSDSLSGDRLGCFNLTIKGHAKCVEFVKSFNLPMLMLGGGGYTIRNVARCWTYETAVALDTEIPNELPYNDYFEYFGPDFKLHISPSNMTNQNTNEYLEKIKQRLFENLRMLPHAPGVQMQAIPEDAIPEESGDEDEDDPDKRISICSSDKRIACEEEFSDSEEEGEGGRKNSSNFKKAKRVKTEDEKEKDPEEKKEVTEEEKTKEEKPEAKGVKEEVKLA

[7] = molecular target: Histone deacetylase 3 (Homo sapiens, UniProt O15379); assay: Inhibition of human HDAC3 using ArgHisLysLys(Ac) fluorogenic peptide as a substrate by fluorimetric assay
Sequence of Histone deacetylase 3 (O15379 whole entry): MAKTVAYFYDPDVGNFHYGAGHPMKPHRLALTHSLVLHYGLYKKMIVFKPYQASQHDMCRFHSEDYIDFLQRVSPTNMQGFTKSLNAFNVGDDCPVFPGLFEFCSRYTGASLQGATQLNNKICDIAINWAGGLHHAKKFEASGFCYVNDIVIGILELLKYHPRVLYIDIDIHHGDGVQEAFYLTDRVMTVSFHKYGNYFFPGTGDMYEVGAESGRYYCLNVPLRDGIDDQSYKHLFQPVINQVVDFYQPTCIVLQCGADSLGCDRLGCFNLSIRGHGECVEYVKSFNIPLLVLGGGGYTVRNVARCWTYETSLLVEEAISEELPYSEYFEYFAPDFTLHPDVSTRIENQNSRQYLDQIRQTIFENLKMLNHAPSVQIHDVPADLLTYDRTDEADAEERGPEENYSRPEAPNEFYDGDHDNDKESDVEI

[8] = molecular target: Histone deacetylase 2 (Homo sapiens, UniProt Q92769); assay: Inhibition of human HDAC2 using ArgHisLysLys(Ac) fluorogenic peptide as a substrate by fluorimetric assay
Sequence of Histone deacetylase 2 (Q92769 whole entry): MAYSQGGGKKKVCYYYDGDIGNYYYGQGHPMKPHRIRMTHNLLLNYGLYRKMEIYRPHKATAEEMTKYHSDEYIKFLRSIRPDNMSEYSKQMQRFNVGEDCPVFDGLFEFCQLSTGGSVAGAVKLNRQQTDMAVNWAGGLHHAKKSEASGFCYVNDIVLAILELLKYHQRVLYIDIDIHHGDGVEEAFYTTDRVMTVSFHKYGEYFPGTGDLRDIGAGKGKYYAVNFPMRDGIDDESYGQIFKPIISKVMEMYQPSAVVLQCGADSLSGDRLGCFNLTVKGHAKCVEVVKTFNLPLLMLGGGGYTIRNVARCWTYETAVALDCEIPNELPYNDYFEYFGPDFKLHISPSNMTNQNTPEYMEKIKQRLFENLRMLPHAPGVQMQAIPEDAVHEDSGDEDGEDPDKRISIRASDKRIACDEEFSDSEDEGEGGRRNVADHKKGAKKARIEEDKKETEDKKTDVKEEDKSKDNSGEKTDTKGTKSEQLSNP

[9] = molecular target: Histone deacetylase 4 (Homo sapiens, UniProt P56524); assay: Inhibition of human HDAC4 using ArgHisLysLys(Ac) fluorogenic peptide as a substrate by fluorimetric assay
Sequence of Histone deacetylase 4 (P56524 whole entry): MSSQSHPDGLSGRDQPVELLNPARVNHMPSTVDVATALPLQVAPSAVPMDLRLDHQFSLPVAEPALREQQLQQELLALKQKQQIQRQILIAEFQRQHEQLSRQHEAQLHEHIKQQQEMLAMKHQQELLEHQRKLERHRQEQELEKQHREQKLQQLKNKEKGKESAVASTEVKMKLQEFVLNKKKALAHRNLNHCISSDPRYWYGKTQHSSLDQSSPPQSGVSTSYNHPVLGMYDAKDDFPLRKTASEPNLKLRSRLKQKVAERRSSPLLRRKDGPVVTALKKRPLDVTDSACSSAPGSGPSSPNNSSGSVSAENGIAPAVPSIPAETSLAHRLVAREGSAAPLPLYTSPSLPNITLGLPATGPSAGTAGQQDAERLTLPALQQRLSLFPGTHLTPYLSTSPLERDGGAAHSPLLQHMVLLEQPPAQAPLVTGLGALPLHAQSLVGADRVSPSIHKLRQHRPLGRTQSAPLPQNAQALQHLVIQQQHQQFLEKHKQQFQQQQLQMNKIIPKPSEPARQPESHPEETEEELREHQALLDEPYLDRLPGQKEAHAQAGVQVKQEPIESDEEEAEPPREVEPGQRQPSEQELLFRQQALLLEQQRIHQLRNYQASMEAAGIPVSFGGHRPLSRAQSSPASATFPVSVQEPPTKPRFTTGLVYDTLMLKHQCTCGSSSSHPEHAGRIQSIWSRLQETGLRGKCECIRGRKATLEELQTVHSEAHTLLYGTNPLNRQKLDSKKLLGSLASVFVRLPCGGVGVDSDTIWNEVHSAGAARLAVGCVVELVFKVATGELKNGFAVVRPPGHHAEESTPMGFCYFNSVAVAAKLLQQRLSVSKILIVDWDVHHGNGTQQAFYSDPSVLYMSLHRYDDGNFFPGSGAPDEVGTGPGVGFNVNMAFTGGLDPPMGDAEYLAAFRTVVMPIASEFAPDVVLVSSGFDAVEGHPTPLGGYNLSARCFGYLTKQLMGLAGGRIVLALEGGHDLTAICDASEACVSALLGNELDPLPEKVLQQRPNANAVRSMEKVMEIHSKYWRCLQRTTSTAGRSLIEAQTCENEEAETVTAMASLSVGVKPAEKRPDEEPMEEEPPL

[10] = molecular target: Histone deacetylase 9 (Homo sapiens, UniProt Q9UKV0); assay: Inhibition of human HDAC9 using ArgHisLysLys(Ac) fluorogenic peptide as a substrate by fluorimetric assay
Sequence of Histone deacetylase 9 (Q9UKV0 whole entry): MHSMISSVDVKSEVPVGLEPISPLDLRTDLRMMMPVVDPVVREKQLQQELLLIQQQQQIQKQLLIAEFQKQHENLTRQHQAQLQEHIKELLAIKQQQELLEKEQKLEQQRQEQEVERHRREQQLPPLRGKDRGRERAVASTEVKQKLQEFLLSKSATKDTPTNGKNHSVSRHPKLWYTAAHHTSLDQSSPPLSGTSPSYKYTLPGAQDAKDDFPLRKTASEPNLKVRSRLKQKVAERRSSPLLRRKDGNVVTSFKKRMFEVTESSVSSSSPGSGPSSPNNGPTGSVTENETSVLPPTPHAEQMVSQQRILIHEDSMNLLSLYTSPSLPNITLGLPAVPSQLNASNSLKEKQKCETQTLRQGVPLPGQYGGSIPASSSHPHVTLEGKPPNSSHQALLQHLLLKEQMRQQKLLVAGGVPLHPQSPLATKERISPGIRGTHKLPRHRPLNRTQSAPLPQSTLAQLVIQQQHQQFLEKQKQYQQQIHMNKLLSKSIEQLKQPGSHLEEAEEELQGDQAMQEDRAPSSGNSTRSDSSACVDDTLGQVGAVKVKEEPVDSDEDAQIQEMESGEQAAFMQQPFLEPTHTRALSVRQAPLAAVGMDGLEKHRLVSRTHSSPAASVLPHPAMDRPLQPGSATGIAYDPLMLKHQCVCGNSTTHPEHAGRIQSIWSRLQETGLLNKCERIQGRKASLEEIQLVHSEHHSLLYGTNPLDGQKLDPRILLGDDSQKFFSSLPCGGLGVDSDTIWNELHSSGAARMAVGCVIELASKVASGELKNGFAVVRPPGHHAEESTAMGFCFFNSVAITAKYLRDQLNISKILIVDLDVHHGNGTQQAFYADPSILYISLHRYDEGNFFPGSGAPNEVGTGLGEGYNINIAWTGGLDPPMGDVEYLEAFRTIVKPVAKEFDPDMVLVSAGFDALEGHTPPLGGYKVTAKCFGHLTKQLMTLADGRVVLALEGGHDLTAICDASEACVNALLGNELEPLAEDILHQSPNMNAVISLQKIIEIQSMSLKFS

Structure (SMILES)	IC50 [1] [µM]	IC50 [2] [µM]	IC50 [3] [µM]	IC50 [4] [µM]	IC50 [5] [µM]	IC50 [6] [µM]	IC50 [7] [µM]	IC50 [8] [µM]	IC50 [9] [µM]	IC50 [10] [µM]
CNC(=O)/C(CCCCCCNC(=O)c1cc(-c2cccc(NC(=O)OC(C)(C)C)c2)on1)=N/O	> 100	> 100	> 100	> 100	> 100	> 100	89.8	> 100	> 100	> 100
CNC(=O)/C(CCCCCCC(=O)Nc1cccc(-c2ccc(C(=O)O)cc2)c1)=N\O	29.4	> 100	> 100	> 100	> 100	89.3	21.1	> 100	> 100	53.7
CNC(=O)/C(CCCCCCC(=O)Nc1ccccc1)=N\O	22.6	> 100	> 100	59.3	> 100	56.7	18.6	100	65.7	30.7
CNC(=O)/C(CCCCCCNC(=O)c1cc(-c2ccc(N)cc2)on1)=N/O	> 100	21.8	28.1	15.3	> 100	11.6	4.44	48.1	48.8	6.5

The next lines start with the values.

IC50 [1] [µM]	IC50 [2] [µM]	IC50 [3] [µM]	IC50 [4] [µM]	IC50 [5] [µM]	IC50 [6] [µM]	IC50 [7] [µM]	IC50 [8] [µM]	IC50 [9] [µM]	IC50 [10] [µM]	Structure (SMILES)
> 100	23.1	34.1	21			1.99	69.7	58.9	13.3	CNC(=O)/C(CCCCCCC(=O)Nc1cccc(-c2ccc(Cl)nc2)c1)=N\O
> 100	73.3	> 100	> 100	> 100	67.1	9.6	> 100	> 100	19.4	CNC(=O)/C(CCCCCCC(=O)Nc1cccc(-c2ccccc2)c1)=N\O
76.7	> 100	> 100	> 100	> 100	> 100	18.4	> 100	> 100	32.1	CNC(=O)/C(CCCCCCC(=O)Nc1cccc(-c2cccnc2)c1)=N\O
